Patent US11225474B2, “Crystalline salt forms of 3-(1,2,4-triazolo[4,3-a]pyridine-3-ylethynyl)-4-methyl-N-(4-((4-methylpiperazin-1-yl)methyl)-3-trifluoromethylphenyl)benzamide for medical application” (priority 2016, dated 2022)

How the values were obtained:
RAF1 = RAF1 (Homo sapiens, UniProt P04049); assay: Human kinase panel at 100 nM; format: biochemical
FYN = FYN (Homo sapiens, UniProt P06241); assay: Human kinase panel at 100 nM; format: biochemical
EPHA8 = EPHA8 (Homo sapiens, UniProt P29322); assay: Human kinase panel at 100 nM; format: biochemical
EPHA8, sequence (P29322 28-1005): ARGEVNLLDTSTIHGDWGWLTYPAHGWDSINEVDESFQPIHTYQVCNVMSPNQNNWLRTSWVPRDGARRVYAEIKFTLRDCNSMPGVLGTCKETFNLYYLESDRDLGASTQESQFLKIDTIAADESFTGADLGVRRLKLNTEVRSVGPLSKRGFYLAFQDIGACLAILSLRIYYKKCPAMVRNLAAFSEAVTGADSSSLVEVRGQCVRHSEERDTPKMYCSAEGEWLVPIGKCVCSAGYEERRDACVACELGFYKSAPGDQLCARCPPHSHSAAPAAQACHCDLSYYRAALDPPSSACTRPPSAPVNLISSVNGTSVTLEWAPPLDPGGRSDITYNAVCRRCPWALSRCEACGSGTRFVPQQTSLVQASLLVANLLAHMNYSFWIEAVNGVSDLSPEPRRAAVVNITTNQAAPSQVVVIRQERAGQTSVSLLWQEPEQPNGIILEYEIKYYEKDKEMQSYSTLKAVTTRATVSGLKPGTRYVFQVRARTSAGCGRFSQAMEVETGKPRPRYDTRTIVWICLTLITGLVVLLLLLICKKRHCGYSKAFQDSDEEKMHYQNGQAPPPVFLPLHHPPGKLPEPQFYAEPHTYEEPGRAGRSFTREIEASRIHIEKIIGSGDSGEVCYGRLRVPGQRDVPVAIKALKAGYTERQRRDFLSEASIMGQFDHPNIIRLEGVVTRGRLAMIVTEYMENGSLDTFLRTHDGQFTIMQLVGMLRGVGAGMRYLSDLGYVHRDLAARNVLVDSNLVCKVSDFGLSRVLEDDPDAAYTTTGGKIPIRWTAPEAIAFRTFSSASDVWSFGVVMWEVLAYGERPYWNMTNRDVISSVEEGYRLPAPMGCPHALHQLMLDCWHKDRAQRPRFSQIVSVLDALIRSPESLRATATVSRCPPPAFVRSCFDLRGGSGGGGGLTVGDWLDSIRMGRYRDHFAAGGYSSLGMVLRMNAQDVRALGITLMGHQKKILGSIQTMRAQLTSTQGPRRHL

SR = assay: Cytotoxicity, lymphoma line; format: cell-based, human
CCRF-CEM = assay: Cytotoxicity, acute lymphoblastic leukemia line; format: cell-based, human
Bcr-Abl (G250E) = Bcr-Abl (G250E) (Homo sapiens, UniProt P00519, G250E, form not given); assay: Bcr-Abl tyrosine kinase enzyme activity
FLT4/VEGFR3 = FLT4/VEGFR3 (Homo sapiens, UniProt P35916); assay: Human kinase panel at 100 nM; format: biochemical
FLT4/VEGFR3, sequence (P35916 25-1363): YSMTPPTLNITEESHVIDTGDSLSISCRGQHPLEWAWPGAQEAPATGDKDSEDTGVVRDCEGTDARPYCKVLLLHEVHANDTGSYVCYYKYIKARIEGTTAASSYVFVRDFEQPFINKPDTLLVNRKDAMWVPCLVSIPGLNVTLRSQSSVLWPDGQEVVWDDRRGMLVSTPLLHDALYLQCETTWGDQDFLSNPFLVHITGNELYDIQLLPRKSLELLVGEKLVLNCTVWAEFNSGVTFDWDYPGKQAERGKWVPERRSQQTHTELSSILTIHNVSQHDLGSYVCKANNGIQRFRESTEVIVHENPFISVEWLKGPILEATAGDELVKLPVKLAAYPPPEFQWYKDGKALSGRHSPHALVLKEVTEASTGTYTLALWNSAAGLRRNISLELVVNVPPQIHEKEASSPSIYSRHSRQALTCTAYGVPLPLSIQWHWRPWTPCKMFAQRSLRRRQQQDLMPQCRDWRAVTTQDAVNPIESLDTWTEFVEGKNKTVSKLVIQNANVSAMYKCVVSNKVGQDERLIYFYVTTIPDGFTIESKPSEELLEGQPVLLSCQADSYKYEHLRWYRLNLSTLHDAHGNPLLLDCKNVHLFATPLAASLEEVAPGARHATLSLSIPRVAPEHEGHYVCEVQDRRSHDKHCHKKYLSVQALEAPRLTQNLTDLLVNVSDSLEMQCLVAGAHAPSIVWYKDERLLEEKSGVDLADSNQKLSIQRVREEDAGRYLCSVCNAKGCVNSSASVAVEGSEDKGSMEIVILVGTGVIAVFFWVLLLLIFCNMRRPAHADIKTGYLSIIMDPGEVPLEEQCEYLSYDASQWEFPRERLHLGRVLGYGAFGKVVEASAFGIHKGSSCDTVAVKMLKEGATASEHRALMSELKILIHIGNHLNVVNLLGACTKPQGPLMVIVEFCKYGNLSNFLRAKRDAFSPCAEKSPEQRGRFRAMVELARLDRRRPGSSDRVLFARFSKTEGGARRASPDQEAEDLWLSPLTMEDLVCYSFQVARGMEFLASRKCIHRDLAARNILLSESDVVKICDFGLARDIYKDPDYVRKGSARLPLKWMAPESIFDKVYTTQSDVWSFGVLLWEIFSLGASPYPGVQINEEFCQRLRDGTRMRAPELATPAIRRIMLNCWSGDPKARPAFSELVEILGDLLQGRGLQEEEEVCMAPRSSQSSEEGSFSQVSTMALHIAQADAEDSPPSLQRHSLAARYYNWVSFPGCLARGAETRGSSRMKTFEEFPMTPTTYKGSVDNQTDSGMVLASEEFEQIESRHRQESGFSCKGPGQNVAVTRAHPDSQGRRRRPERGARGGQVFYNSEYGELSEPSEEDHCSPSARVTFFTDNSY

Drosophila melanogaster = assay: Gene toxicity: induced somatic mosaicism; format: in vivo; conditions: all doses tested
PDGFRb = PDGFRb (Homo sapiens, UniProt P09619); assay: Human kinase panel at 100 nM; format: biochemical
HCT116 line cells = conditions: oral, 25 mg/kg (21 mg/kg as free base), 20 days
Protocol: To induce pathology, HCT116 line cells were used. Cells in the amount of 200 μL (2.5×10^7 cells/mL) were subcutaneously injected to the right side of thymus-deprived female mice (SCID). […] To determine the efficacy of tumor growth inhibition upon completion of treatment (20 days), the average size ratio was calculated between the therapeutic/control groups (% T/C).

Bcr-Abl = Bcr-Abl (Homo sapiens, UniProt P00519); assay: Bcr-Abl tyrosine kinase enzyme activity
EL4 = assay: Cytotoxicity, lymphoma line; format: cell-based, human
K562 line cells = assay: Xenograft chronic leukemia model; format: in vivo, thymus-deprived mice; conditions: oral, 14 days, follow-up 240 days
Text: The therapy was started after the size of the tumor had reached 500 mm^3, therapy duration was 14 days, the follow-up period was 240 days.

CYP2B6 = CYP2B6 (Homo sapiens, UniProt P20813); assay: Metabolism study using cytochrome enzyme drugs; format: in vitro ADME; conditions: 2B6
CYP2B6, sequence (P20813 whole entry): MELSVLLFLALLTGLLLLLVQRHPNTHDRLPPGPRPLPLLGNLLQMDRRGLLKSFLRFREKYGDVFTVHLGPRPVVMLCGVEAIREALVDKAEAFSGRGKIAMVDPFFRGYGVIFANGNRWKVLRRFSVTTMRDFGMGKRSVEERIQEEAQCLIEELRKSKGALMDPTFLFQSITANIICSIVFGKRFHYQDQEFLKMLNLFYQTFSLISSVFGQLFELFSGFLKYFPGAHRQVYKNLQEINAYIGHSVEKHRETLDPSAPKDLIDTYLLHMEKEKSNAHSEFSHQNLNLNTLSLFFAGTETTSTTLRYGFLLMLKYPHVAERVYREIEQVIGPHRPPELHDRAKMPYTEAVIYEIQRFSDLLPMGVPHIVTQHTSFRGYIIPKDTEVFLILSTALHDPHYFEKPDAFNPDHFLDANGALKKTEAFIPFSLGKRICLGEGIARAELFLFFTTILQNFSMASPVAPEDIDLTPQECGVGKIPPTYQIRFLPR

FGR = FGR (Homo sapiens, UniProt P09769); assay: Human kinase panel at 100 nM; format: biochemical
BaF3/BCR-ABL T315I = assay: Toxicity to transduced BaF3 model tumor cell line; format: cell-based, murine; conditions: Mus musculus
HCK = HCK (Homo sapiens, UniProt P08631); assay: Human kinase panel at 100 nM; format: biochemical
HCK, sequence (P08631 whole entry): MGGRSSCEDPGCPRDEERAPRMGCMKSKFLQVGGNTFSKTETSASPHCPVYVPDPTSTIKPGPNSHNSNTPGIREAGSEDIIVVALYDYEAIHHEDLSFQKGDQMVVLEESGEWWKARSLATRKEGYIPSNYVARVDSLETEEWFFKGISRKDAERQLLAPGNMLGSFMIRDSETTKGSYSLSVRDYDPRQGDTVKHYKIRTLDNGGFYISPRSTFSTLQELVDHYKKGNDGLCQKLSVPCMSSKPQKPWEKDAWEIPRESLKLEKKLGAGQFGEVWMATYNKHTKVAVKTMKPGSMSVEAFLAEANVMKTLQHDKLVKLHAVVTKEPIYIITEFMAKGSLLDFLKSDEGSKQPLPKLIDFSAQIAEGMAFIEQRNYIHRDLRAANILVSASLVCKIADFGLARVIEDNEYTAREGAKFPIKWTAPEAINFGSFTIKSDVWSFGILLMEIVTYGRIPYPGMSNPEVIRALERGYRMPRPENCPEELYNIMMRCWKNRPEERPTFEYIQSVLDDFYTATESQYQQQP

[1] = Acute toxicity, oral route, mice; conditions: male, CD-1, mouse, in vivo, po, LD50, oral, male CD-1 mice
Text: (§1) For each drug dose study a group of six animals was used. The study included control groups with the same animal headcount, which received equivalent solvent doses of a 0.5% water solution of methylcellulose. The follow-up period was 28 days. Lab mouse survivability analysis allowed carrying out Bliss analysis and determining the lethal doses of the studied drugs.

CD-1 line mice males = assay: Acute toxicity, oral route, mice; conditions: for LD10 / LD90: oral, male CD-1 mice
Text: as §1

potassium hERG channel = potassium hERG channel (Homo sapiens, UniProt Q12809); assay: Effect on the ion hERG channel; format: cell-based; conditions: tested at 0.1-10 μM, mesylate salt
potassium hERG channel, sequence (Q12809 whole entry): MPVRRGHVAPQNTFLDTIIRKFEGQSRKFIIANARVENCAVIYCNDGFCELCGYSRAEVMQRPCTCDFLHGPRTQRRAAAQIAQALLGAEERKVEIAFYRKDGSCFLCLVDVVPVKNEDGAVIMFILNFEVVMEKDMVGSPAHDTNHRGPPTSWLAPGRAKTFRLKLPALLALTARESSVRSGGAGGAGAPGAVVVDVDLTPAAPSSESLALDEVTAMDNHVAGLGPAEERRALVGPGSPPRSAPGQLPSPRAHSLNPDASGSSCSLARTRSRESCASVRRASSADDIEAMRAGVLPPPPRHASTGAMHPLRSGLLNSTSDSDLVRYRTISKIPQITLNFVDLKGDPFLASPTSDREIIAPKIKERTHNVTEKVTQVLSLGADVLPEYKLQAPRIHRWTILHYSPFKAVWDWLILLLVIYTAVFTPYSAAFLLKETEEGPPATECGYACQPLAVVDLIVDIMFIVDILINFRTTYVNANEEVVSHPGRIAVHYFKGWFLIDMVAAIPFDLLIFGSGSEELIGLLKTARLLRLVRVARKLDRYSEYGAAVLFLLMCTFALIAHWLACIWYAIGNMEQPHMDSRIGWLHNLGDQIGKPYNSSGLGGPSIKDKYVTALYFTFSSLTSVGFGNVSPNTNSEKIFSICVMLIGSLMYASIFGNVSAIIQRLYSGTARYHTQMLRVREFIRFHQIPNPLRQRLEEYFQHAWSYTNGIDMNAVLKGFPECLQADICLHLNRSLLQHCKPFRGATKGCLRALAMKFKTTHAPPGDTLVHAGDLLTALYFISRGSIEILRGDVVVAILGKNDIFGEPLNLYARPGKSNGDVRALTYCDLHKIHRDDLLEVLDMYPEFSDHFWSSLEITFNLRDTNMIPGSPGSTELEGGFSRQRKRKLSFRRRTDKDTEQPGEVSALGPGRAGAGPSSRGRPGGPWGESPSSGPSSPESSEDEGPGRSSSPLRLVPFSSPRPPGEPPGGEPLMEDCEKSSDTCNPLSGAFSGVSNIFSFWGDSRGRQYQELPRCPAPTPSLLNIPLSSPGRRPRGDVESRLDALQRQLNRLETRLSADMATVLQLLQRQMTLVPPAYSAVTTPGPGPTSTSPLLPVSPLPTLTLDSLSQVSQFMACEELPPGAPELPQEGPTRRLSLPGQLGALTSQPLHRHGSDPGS

[2] = Daily intragastric administration during 28 days, rats; conditions: rat, in vivo, po; for MTD at 28 days: daily intragastric
[3] = tested on: Sca1+ marrow cells, expressing p185-T315I^BCR/ABL; assay: BCR/ABL-induced chronic myelogenous leukemia model; format: in vivo, C57BL/6N line mice; conditions: for Average life: oral, control 55.0 ± 6.3
Protocol: To assess the efficacy of the free base and methanesulfonic acid salt of 3-(1,2,4-triazolo[4,3-a]pyridine-3-ylethynyl)-4-methyl-N-(4-((4-methylpiperazine-1-yl)methyl)-3-trifluoromethylphenyl)benzamide for treating chronic myelogenous leukemia (CML) studies of the compounds' activity on the BCR/ABL-induced CML-like disease in mice were conducted. In the study C57BL/6N line mice were used. […] The efficacy of therapy with 3-(1,2,4-triazolo[4,3-a]pyridine-3-ylethynyl)-4-methyl-N-(4-((4-methylpiperazine-1-yl)methyl)-3-trifluoromethylphenyl)benzamide administered orally as a free base and methanesulfonic acid salt was studied.

K562 = assay: Cytotoxicity, Ph+ CML model cell line; format: cell-based; conditions: Homo sapiens, read-out: IC50 (toxicity)
[4] = Hygroscopicity by gravimetric moisture absorption; format: physicochemical; conditions: relative air humidity of 90%
Text: Samples were also studied using the following methods: polarization microscopy (Leica DMRB Polarized Microscope, resolution of 1600×1200)—to confirm crystallinity, ion chromatography—to confirm anion and cation stoichiometric proportion, differential scanning calorimetry (DSC) and thermogravimetric analysis (TGA)—to confirm composition and study of temperature stability of samples; ^1H NMR (500 MHz Bruker AVANCE 500.13 MHz, solvent DMSO-d6)—to confirm structure, assess purity and content of organic solvents; gravimetric moisture absorption—to assess hygroscopicity. DSC was carried out using Mettler 822e DSC apparatus. The measuring system was calibrated according to ISO 11357-1 standard based on standard substances phase changes (C6H12; Hg; benzoic acid; Ga; KNO3; In; Sn; Bi; CsCl; purity grade 99.99%). Temperature calibration regular error (determined based on In) is 0.1°. Samples were tested in standard aluminum cells in the artificial air flow at a temperature range of 30-300° C. with heating speed of 10°/min. TG measurements were taken using Mettler 851e SDTA/TGA TG analyzer. The apparatus was calibrated using standard substances melting points (Ag; Al; Bi; In; Sn; purity grade of 99.99%). Weighing error is NMT 0.1% (determined using CaC2O4·2H2O standard). The test was carried out in a standard open aluminum container in the artificial air flow at a temperature range of 30-150° C. with heating speed of 10°/min. To avoid dehydration, the material was not exposed to mechanical treatment before taking measurements.

P38a/MAPK14 = P38a/MAPK14 (Homo sapiens, UniProt Q16539); assay: Human kinase panel at 100 nM; format: biochemical
[5] = dose of the substance administered

FYN, sequence (P06241 whole entry): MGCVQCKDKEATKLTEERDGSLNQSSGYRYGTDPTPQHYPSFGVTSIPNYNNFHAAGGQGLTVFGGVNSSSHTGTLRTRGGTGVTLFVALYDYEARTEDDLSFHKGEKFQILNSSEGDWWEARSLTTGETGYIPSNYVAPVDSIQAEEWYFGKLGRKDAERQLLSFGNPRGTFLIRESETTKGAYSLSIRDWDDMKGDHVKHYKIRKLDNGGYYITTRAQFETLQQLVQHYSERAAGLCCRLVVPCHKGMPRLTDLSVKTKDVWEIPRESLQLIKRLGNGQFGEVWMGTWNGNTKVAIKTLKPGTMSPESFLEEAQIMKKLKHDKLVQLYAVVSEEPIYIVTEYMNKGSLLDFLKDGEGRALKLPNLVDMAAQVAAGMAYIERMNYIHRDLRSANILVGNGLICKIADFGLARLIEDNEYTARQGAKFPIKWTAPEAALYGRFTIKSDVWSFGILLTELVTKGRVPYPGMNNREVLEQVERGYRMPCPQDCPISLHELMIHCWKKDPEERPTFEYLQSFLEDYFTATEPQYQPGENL

## CS(=O)(=O)O.Cc1ccc(C(=O)Nc2ccc(CN3CCN(C)CC3)c(C(F)(F)F)c2)cc1C#Cc1nnc2ccccn12 [methanesulfonic acid salt, 3-(1,2,4-triazolo[4,3-a]pyridine-3-ylethynyl)-4-methyl-N-(4-((4-methylpiperazin-1-yl)methyl)-3-trifluoromethylphenyl)benzamide mono methanesulfonic acid salt]
RAF1
  inhibition at 0.1 µM: > 50%
FYN
  inhibition at 0.1 µM: > 50%
EPHA8
  inhibition at 0.1 µM: > 50%
SR
  cytotoxicity: showed cytotoxicity
CCRF-CEM
  cytotoxicity: showed cytotoxicity
Bcr-Abl (G250E)
  IC50: 7.4 nM
FLT4/VEGFR3
  inhibition at 0.1 µM: > 50%
Drosophila melanogaster
  genotoxic effects: had no genotoxic effects
PDGFRb
  inhibition at 0.1 µM: > 50%
HCT116 line cells
  T/C (average tumor size ratio therapeutic/control): < 35%
Bcr-Abl
  IC50: 0.49 to 3.1 nM
mice; intragastric administration (21 days), mice
  hemagglutinin and hemolysin levels in the blood: had no effect on the hemagglutinin and hemolysin levels in the blood
mice; mice
  toxic immune effect (overall): had no toxic immune effect
mice; mouse, in vivo
  rosette test: no effect in the rosette test
mice; single intragastric administration, mice
  hemagglutinin and hemolysin level in the blood: had no effect on the hemagglutinin and hemolysin level in the blood
EL4
  cytotoxicity: showed cytotoxicity
K562 line cells; 25 mg/kg (21 as free base) per day
  effect on the tumor size: decrease of the tumor size to an immeasurable size with subsequent proliferation after the 35th day of follow-up
K562 line cells; 40 mg/kg (34 as free base) per day
  effect on the tumor size: elimination of the tumor without relapse during all 240 days of follow-up in all mice
CYP2B6
  participation of the isoform in metabolism: does not involve
FGR
  inhibition at 0.1 µM: > 50%
BaF3/BCR-ABL T315I
  IC50: 75 nM
HCK
  inhibition at 0.1 µM: > 50%
[1]; calculated as a free base
  LD50 at 28 days: 1190 mg/kg
[1]; [5]
  LD50 at 28 days: 1400 mg/kg
CD-1 line mice males; mouse, in vivo, po
  signs of animal intoxication: dyspnea, hypodynamia, tumbled fur, diarrhea, bloating, in some animals—focal alopecia
CD-1 line mice males; calculated as a free base
  LD10: (508*) mg/kg
  LD90: (1,864*) mg/kg
CD-1 line mice males; [5]
  LD10: 600 mg/kg
  LD90: 2,200 mg/kg
Potassium hERG channel
  IC50: 7800 nM
[2]; Day 28, dose of 50 mg/kg daily intragastric
  Cmax: 661 ± 289 ng/mL
[2]; Day 28, dose of 50 mg/kg daily intragastric, read-out: AUC24
  AUC: 8600 ng·h/mL
[2]; 2 separate studies, dose of the salt
  MTD at 28 days: 50 to 73 mg/kg
[2]; calculated as a free base
  MTD at 28 days: 42 to 62 mg/kg
[3]; 40 mg/kg (34 mg/kg as free base)
  therapeutic effect compared with the free base: same therapeutic effect as administration of 50 mg/kg of a free base
[3]; 59 mg/kg (50 mg/kg as free base)
  increase of animals' lives compared to the control group: almost two-fold increase
[3]; 10 mg/kg salt (8.5 as free base)
  Average life: 65.5 ± 6.7 days
[3]; 25 mg/kg salt (21 as free base)
  Average life: 73.9 ± 7.1 days
[3]; 40 mg/kg salt (34 as free base)
  Average life: 90.3 ± 6.9 days
[3]; 59 mg/kg salt (50 as free base)
  Average life: 104.5 ± 5.2 days
K562
  IC50: 8 nM
[4]
  water absorbed (hygroscopicity): less than two mass percent of water
P38a/MAPK14
  inhibition at 0.1 µM: > 50%
